The values below come from the OligoGym collection.

Values joined by “and” are separate entries in the source; they are usually repeats but may differ in a detail not shown here. Equal values may be shown once. After the bases stand the sugars from the 5' end (letter, count) and the backbone: PS all phosphorothioate, else s phosphorothioate and o phosphodiester by linkage. Methylation of C is not given here. e = 2'-O-(2-methoxyethyl) (MOE); k = constrained ethyl (cEt); d = 2'-deoxy (DNA)

The data set deals with IRF4. The settings on record: ASO.

On to GGGAGAGCGGAGGCGG (sugars k3 d10 k3, PS), for which the target mRNA inhibition (SK-MEL-28, 4 µM) amounted to 22%.

As to GGGATTCCGCGCGCAG (sugars k3 d10 k3, PS), where the note is “SK-MEL-28, 4 µM”, the target mRNA inhibition stood at 14%.

Take GGGCAACTTTAACCAT (sugars k3 d10 k3, PS): the target mRNA inhibition (SK-MEL-28, 4 µM) worked out at 8%.

GGGCATGTGACTGGAG (sugars k3 d10 k3, PS): the target mRNA inhibition (SK-MEL-28, 4 µM) was 50%.

In the case of GGGCCCCGTGAAACAG (sugars k3 d10 k3, PS), the target mRNA inhibition (SK-MEL-28, 4 µM) was 33%.

Take GGGTAGAGCAGCTCCC (sugars k3 d10 k3, PS): the target mRNA inhibition (MM.1R, 1 µM) is -16%.

Consider GGGTGCTCTTACAGCC (sugars k3 d10 k3, PS), for which the target mRNA inhibition (MM.1R, 1 µM) is -2%.

GGGTGGCATCATGTAG (sugars k3 d10 k3, PS): the target mRNA inhibition (MM.1R, 1 µM) is 27%.

Turning to GGGTTAAATATTCTTC (sugars k3 d10 k3, PS), the target mRNA inhibition (SK-MEL-28, 4 µM) was 52%.

GGTAAGATCTCCATGG (sugars k3 d10 k3, PS): the target mRNA inhibition (SK-MEL-28, 4 µM) amounted to 45%.

In the case of GGTCACTTGGTTCTCT (sugars k3 d10 k3, PS), the target mRNA inhibition (SK-MEL-28, 4 µM) worked out at 79%.

With GGTCAGAATCTTGAAA (sugars k3 d10 k3, PS), the target mRNA inhibition (SK-MEL-28, 4 µM) was 9%.

Take GGTCTGGAAACTCCTC (sugars k3 d10 k3, PS): the target mRNA inhibition by setting is: (MM.1R, 0.074 µM) 13%; (MM.1R, 0.222 µM) 14%; (MM.1R, 0.666 µM) 12%; (MM.1R, 2 µM) 17%; (SK-MEL-28, 0.185 µM) 1%; (SK-MEL-28, 4 µM) 52%. Moreover, the target mRNA inhibition runs as follows: (SK-MEL-28, 5 µM) 63%; (SK-MEL-28, 15 µM) 86%.

With GGTCTGGAAACTCCTC (sugars k4 d8 k4, PS), the target mRNA inhibition (SK-MEL-28, 4 µM) came to 31%.

Take GGTGCTCCTAAATCAC (sugars k3 d10 k3, PS): the target mRNA inhibition (MM.1R, 1 µM) was -1%.

Turning to GGTTGGCTGGTCTTTG (sugars k3 d10 k3, PS), the target mRNA inhibition is, setting by setting: (MM.1R, 0.0625 µM) -2% and 15%; (MM.1R, 0.25 µM) 16% and 20%; (MM.1R, 1 µM) 49% and 35%; (MM.1R, 4 µM) 66% and 70%.

On to “GGTTGGCTGGTCTTTG (sugars kkdddddddddkekek, PS)”, for which the target mRNA inhibition is 34% (MM.1R, 0.0625 µM); 44% (MM.1R, 0.25 µM); 67% and 63% (MM.1R, 1 µM); 82% (MM.1R, 4 µM).

As to GGTTTCAGTTGTAAAT (sugars k3 d10 k3, PS), the target mRNA inhibition (SK-MEL-28, 4 µM) was 58%.

GTAAAACATAACTTAC (sugars k3 d10 k3, PS): the target mRNA inhibition (SK-MEL-28, 4 µM) worked out at 8%.

Consider GTAAACTGAAAGACCC (sugars k3 d10 k3, PS), for which the target mRNA inhibition (SK-MEL-28, 4 µM) turned out to be 35%.

As for GTAAGGGCTGCTCATT (sugars k3 d10 k3, PS), the target mRNA inhibition (SK-MEL-28, 4 µM) amounted to 52%.

In the case of GTAATCTTCTGGATTG (sugars k3 d10 k3, PS), under “SK-MEL-28, 4 µM”, the target mRNA inhibition stood at 29%.

Consider GTAATTTTAAGGCCCT (sugars k3 d10 k3, PS), for which the target mRNA inhibition (SK-MEL-28, 4 µM) stood at 55%.

For the sequence GTACGAGCACATGTCA (sugars k3 d10 k3, PS), for the setting “MM.1R, 1 µM”, the target mRNA inhibition came out at 0%.

With GTACTTGCCGCTGTCG (sugars k3 d10 k3, PS), the target mRNA inhibition (SK-MEL-28, 4 µM) was found to be 27%.

For the sequence GTAGACCACAGTGAAG (sugars k3 d10 k3, PS), where the note is “SK-MEL-28, 4 µM”, the target mRNA inhibition came to 29%.

GTAGAGGAGGAGGACT (sugars k3 d10 k3, PS): where the note is “SK-MEL-28, 4 µM”, the target mRNA inhibition was 16%.

Consider GTAGGACAGACAAAAA (sugars k3 d10 k3, PS), for which the target mRNA inhibition (SK-MEL-28, 4 µM) worked out at 23%.

In the case of GTAGGAGTGTAACTGA (sugars k3 d10 k3, PS), the target mRNA inhibition (SK-MEL-28, 4 µM) was determined as 41%.

With “GTAGTATGAGAAACGG (sugars e1 k2 d9 k2 e2, PS)”, the target mRNA inhibition (MM.1R, 1 µM) worked out at 29%.

“GTAGTATGAGAAACGG (sugars k2 d9 e3 k2, PS)”: the target mRNA inhibition (MM.1R, 1 µM) was 51%.

For “GTAGTATGAGAAACGG (sugars k3 d9 k3 e1, PS)”, the target mRNA inhibition (MM.1R, 1 µM) was found to be 40%.

For the sequence “GTAGTATGAGAAACGG (sugars kkdddddddddekeke, PS)”, the target mRNA inhibition (MM.1R, 1 µM) was determined as 35%.

As to “GTAGTATGAGAAACGG (sugars kkdddddddddkdkdk, PS)”, where the note is “MM.1R, 1 µM”, the target mRNA inhibition is 32%.

For GTATACATCACTGCAG (sugars k3 d10 k3, PS), the target mRNA inhibition (SK-MEL-28, 4 µM) was found to be 44%.

Turning to GTATGTAGCAATGTGA (sugars k3 d10 k3, PS), the target mRNA inhibition (SK-MEL-28, 4 µM) turned out to be 21%.

As for GTATTTATAACCGGTA (sugars k3 d10 k3, PS), the target mRNA inhibition is -7% and 4% and -9% (MM.1R, 0.0625 µM); -19% (MM.1R, 0.074 µM); 4% (MM.1R, 0.222 µM); 8% and 9% and 21% (MM.1R, 0.25 µM); 7% (MM.1R, 0.666 µM); 34% and 36% and 37% (MM.1R, 1 µM). Besides, the target mRNA inhibition by setting is: (MM.1R, 2 µM) 33%; (MM.1R, 4 µM) 77% and 74% and 75%; (SK-MEL-28, 4 µM) 67%.

Regarding GTATTTGTCGAGATCA (sugars k3 d10 k3, PS), the target mRNA inhibition (SK-MEL-28, 4 µM) came to 59%.

With GTCACCTGGCAACCAT (sugars k4 d8 k4, PS), the target mRNA inhibition (SK-MEL-28, 4 µM) worked out at 41%.

With GTCACGCAATGGCAAA (sugars k3 d10 k3, PS), the target mRNA inhibition (MM.1R, 1 µM) is -2%.

On to GTCCACTGAGTACAAA (sugars k3 d10 k3, PS), for which the target mRNA inhibition (SK-MEL-28, 4 µM) is 13%.

As to GTCCAGCTGGCTCCGC (sugars k3 d10 k3, PS), where the note is “SK-MEL-28, 4 µM”, the target mRNA inhibition was found to be 53%.

In the case of GTCCCCTCTACTTCAG (sugars k3 d10 k3, PS), the target mRNA inhibition (SK-MEL-28, 4 µM) amounted to 41%.

With GTCTACAGAACACAAG (sugars k3 d10 k3, PS), the target mRNA inhibition (SK-MEL-28, 4 µM) was 24%.

Turning to GTCTGAGTTGTACAGG (sugars k3 d10 k3, PS), the target mRNA inhibition (MM.1R, 1 µM) was 52% and 57%.

For the sequence GTGAAGCATCCTTTCC (sugars k3 d10 k3, PS), the target mRNA inhibition (SK-MEL-28, 4 µM) came to 63%.

Turning to GTGAGATGCGGAGGTT (sugars k3 d10 k3, PS), the target mRNA inhibition reads like this: (MM.1R, 0.0625 µM) 14%; (MM.1R, 0.25 µM) 12%; (MM.1R, 1 µM) 39%; (MM.1R, 4 µM) 66%.

Turning to “GTGATGTCAGGTTTTC (sugars e1 k2 d9 k2 e2, PS)”, the target mRNA inhibition (MM.1R, 1 µM) came to 48%.

On to “GTGATGTCAGGTTTTC (sugars kkdddddddddkdkdk, PS)”, for which, where the note is “MM.1R, 1 µM”, the target mRNA inhibition came out at 27%.

Take “GTGATGTCAGGTTTTC (sugars kkdddddddddkekek, PS)”: where the note is “MM.1R, 1 µM”, the target mRNA inhibition was found to be 40%.

On to GTGCAAAACCAGTACA (sugars k3 d10 k3, PS), for which the target mRNA inhibition (SK-MEL-28, 4 µM) amounted to 33%.

For the sequence GTGCAAGCCTCATTCA (sugars k3 d10 k3, PS), the target mRNA inhibition (MM.1R, 1 µM) was 19%.

With GTGCAGACCTGAATAG (sugars k3 d10 k3, PS), the target mRNA inhibition (SK-MEL-28, 4 µM) came out at 14%.

As for GTGCTCATGGCTGATA (sugars k3 d10 k3, PS), where the note is “MM.1R, 1 µM”, the target mRNA inhibition came to 24%.

Take GTGCTTGCCAAGCCTA (sugars k3 d10 k3, PS): where the note is “MM.1R, 1 µM”, the target mRNA inhibition is 27% and 36%.

Regarding GTGGAAACGAGAACGC (sugars k3 d10 k3, PS), the target mRNA inhibition (SK-MEL-28, 4 µM) was determined as 3%.

For GTGGAACTCTAGTGTC (sugars k3 d10 k3, PS), the target mRNA inhibition (SK-MEL-28, 4 µM) was 12%.

GTGGACACTTTTAGAG (sugars k3 d10 k3, PS): where the note is “SK-MEL-28, 4 µM”, the target mRNA inhibition came out at 52%.

As for GTGTAATGTAGGGATA (sugars k3 d10 k3, PS), the target mRNA inhibition (SK-MEL-28, 4 µM) turned out to be 64%.

Turning to GTGTCTAAAGTCCCAT (sugars k3 d10 k3, PS), the target mRNA inhibition (MM.1R, 1 µM) was 18% and 28%.
